Reference: ChEMBL document CHEMBL4732247, “Discovery of A031 as effective proteolysis targeting chimera (PROTAC) androgen receptor (AR) degrader for the treatment of prostate cancer” (Eur J Med Chem, 2021)

What was measured:
VCaP [1] = test: Cytotoxicity against human VCaP cells assessed as growth inhibition at 0.125 uM after 4 days by CCK8 assay relative to control; assay type: functional; details: 96 h, time 4 day, read-out: GI
VCaP [2] = test: Cytotoxicity against human VCaP cells assessed as growth inhibition at 0.25 uM after 4 days by CCK8 assay relative to control; assay type: functional; details: 96 h, time 4 day, read-out: GI
VCaP [3] = test: Cytotoxicity against human VCaP cells assessed as growth inhibition at 0.5 uM after 4 days by CCK8 assay relative to control; assay type: functional; details: 96 h, time 4 day, read-out: GI
VCaP [4] = test: Cytotoxicity against human VCaP cells assessed as growth inhibition at 1 uM after 4 days by CCK8 assay relative to control; assay type: functional; details: 96 h, time 4 day, read-out: GI
VCaP [5] = test: Cytotoxicity against human VCaP cells assessed as growth inhibition at 0.8 uM after 4 days by CCK8 assay relative to control; assay type: functional; details: 96 h, time 4 day, read-out: GI
VCaP [6] = test: Cytotoxicity against human VCaP cells assessed as growth inhibition at 4 uM after 4 days by CCK8 assay relative to control; assay type: functional; details: 96 h, time 4 day, read-out: GI
VCaP [7] = test: Cytotoxicity against human VCaP cells assessed as growth inhibition after 4 days by CCK8 assay; assay type: functional, cell-based; details: dose 0.032-4 µM, time 4.0 day

| SMILES | inhibition of growth at 0.125 µM (VCaP [1]) [%] | inhibition of growth at 0.25 µM (VCaP [2]) [%] | inhibition of growth at 0.5 µM (VCaP [3]) [%] | inhibition of growth at 1 µM (VCaP [4]) [%] | inhibition of growth at 0.8 µM (VCaP [5]) [%] | inhibition of growth at 4 µM (VCaP [6]) [%] | growth inhibition (GI) (VCaP [7]) |
| --- | --- | --- | --- | --- | --- | --- | --- |
| C[C@@]12C[C@H](NC(=O)c3ccc(N4CCN(CCCCCNc5ccc6c(c5)C(=O)N(C5CCC(=O)NC5=O)C6=O)CC4)cc3)C[C@]1(C)C[C@@H](Oc1ccc(C#N)c(Cl)c1)C2 (some centres undefined) | 24.1 | 30.3 | 38.1 | 44.5 | – | – | – |
| N#Cc1ccc(O[C@H]2C[C@H]3CC[C@@H](C2)N3C(=O)c2ccc(N3CCN(CCCCCCCCCOc4cccc5c4C(=O)N(C4CCC(=O)NC4=O)C5=O)CC3)cc2)cc1Cl (some centres undefined) | – | – | – | – | 21.9 | 30.6 | Dose-dependent effect |
| Cc1ncsc1-c1ccc([C@H](CC(=O)NCCCCCCCN2CCN(c3ccc(C(=O)N4[C@@H]5CC[C@H]4C[C@@H](Oc4ccc(C#N)c(Cl)c4)C5)cc3)CC2)NC(=O)[C@H]2C[C@H](O)CN2C(=O)[C@H](NC(=O)C2(F)CC2)C(C)(C)C)cc1 | – | 2.18 | 14.5 | 29.8 | – | – | – |
| Cc1ncsc1-c1ccc([C@H](CC(=O)NCCCCCCCCCN2CCN(c3ccc(C(=O)N4[C@@H]5CC[C@H]4C[C@@H](Oc4ccc(C#N)c(Cl)c4)C5)cc3)CC2)NC(=O)[C@H]2C[C@H](O)CN2C(=O)[C@H](NC(=O)C2(F)CC2)C(C)(C)C)cc1 | 5.34 | 15.9 | 29 | 55.2 | – | – | – |
| C[C@@]12C[C@H](NC(=O)c3ccc(N4CCN(CCCCCCCCNc5ccc6c(c5)C(=O)N(C5CCC(=O)NC5=O)C6=O)CC4)cc3)C[C@]1(C)C[C@@H](Oc1ccc(C#N)c(Cl)c1)C2 (some centres undefined) | 6.05 | 19.5 | 24.6 | 26 | – | – | – |
| CN1CCC(N2CCC(C#Cc3ccc(C(=O)N4[C@@H]5CC[C@H]4C[C@@H](Oc4ccc(C#N)c(Cl)c4)C5)cc3)CC2)CC1 | 14.9 | 23.3 | 30.1 | 34 | – | – | – |
| C[C@@]12C[C@H](NC(=O)c3ccc(N4CCN(CCCCCCNc5ccc6c(c5)C(=O)N(C5CCC(=O)NC5=O)C6=O)CC4)cc3)C[C@]1(C)C[C@@H](Oc1ccc(C#N)c(Cl)c1)C2 (some centres undefined) | 30.7 | 31.8 | 34.5 | 35.3 | – | – | – |
| N#Cc1ccc(O[C@H]2C[C@H]3CC[C@@H](C2)N3C(=O)c2cnc(N3CCN(CCCNc4cccc5c4C(=O)N(C4CCC(=O)NC4=O)C5=O)CC3)nc2)cc1Cl (some centres undefined) | – | – | 9.74 | 30.4 | – | – | Dose-dependent effect |
| N#Cc1ccc(O[C@H]2C[C@H]3CC[C@@H](C2)N3C(=O)c2cnc(N3CCN(CCCCCNc4cccc5c4C(=O)N(C4CCC(=O)NC4=O)C5=O)CC3)nc2)cc1Cl (some centres undefined) | 20 | 24.6 | 30.1 | 36.9 | – | – | Dose-dependent effect |
| N#Cc1ccc(O[C@H]2C[C@H]3CC[C@@H](C2)N3C(=O)c2cnc(N3CCN(CCCCCCNc4cccc5c4C(=O)N(C4CCC(=O)NC4=O)C5=O)CC3)nc2)cc1Cl (some centres undefined) | 10.1 | 23.5 | 32.1 | 40.5 | – | – | Dose-dependent effect |
| Cc1ncsc1-c1ccc([C@H](C)NC(=O)[C@@H]2C[C@@H](O)CN2C(=O)[C@@H](NC(=O)COCCN2CCN(c3ccc(C(=O)N4[C@@H]5CC[C@H]4C[C@@H](Oc4ccc(C#N)c(Cl)c4)C5)cc3)CC2)C(C)(C)C)cc1 | 45 | 61.8 | 70.6 | 76.2 | – | – | – |
| Cc1ncsc1-c1ccc([C@H](C)NC(=O)[C@@H]2C[C@@H](O)CN2C(=O)[C@@H](NC(=O)COCCN2CCN(c3ccc(C(=O)N4[C@@H]5CC[C@H]4C[C@@H](Oc4ccc(C#N)c(Cl)c4)C5)nn3)CC2)C(C)(C)C)cc1 | – | 6.65 | 12.5 | 28.1 | – | – | – |
| Cc1ncsc1-c1ccc([C@H](CC(=O)NCCCCCCCCN2CCN(c3ccc(C(=O)N4[C@@H]5CC[C@H]4C[C@@H](Oc4ccc(C#N)c(Cl)c4)C5)cc3)CC2)NC(=O)[C@H]2C[C@H](O)CN2C(=O)[C@H](NC(=O)C2(F)CC2)C(C)(C)C)cc1 | – | 11.3 | 24.1 | 44.7 | – | – | – |
| N#Cc1ccc(O[C@H]2C[C@H]3CC[C@@H](C2)N3C(=O)c2cnc(N3CCN(CCCCCCCNc4ccc5c(c4)C(=O)N(C4CCC(=O)NC4=O)C5=O)CC3)nc2)cc1Cl (some centres undefined) | 28.1 | 30.7 | 35.2 | 30.4 | – | – | – |
| Cc1ncsc1-c1ccc([C@H](C)NC(=O)[C@@H]2C[C@@H](O)CN2C(=O)[C@@H](NC(=O)COCCN2CCN(c3ccc(C(=O)N4[C@@H]5CC[C@H]4C[C@@H](Oc4ccc(C#N)c(Cl)c4)C5)nc3)CC2)C(C)(C)C)cc1 | 18.8 | 25.6 | 33.9 | 43.2 | – | – | – |
| N#Cc1ccc(O[C@H]2C[C@H]3CC[C@@H](C2)N3C(=O)c2cnc(N3CCN(CCCNc4ccc5c(c4)C(=O)N(C4CCC(=O)NC4=O)C5=O)CC3)nc2)cc1Cl (some centres undefined) | 17.1 | 25.6 | 30.1 | 42.4 | – | – | – |
| N#Cc1ccc(O[C@H]2C[C@H]3CC[C@@H](C2)N3C(=O)c2cnc(N3CCN(CCCCCCNc4ccc5c(c4)C(=O)N(C4CCC(=O)NC4=O)C5=O)CC3)nc2)cc1Cl (some centres undefined) | 31.7 | 36.3 | 37.8 | 38.9 | – | – | – |
| N#Cc1ccc(O[C@H]2C[C@H]3CC[C@@H](C2)N3C(=O)c2cnc(N3CCN(CCCCNc4ccc5c(c4)C(=O)N(C4CCC(=O)NC4=O)C5=O)CC3)nc2)cc1Cl (some centres undefined) | 10.2 | 22.2 | 36.5 | 53.1 | – | – | – |
| Cc1ncsc1-c1ccc(CNC(=O)[C@@H]2C[C@@H](O)CN2C(=O)[C@@H](NC(=O)CCN2CCN(c3ccc(C(=O)N4[C@@H]5CC[C@H]4C[C@@H](Oc4ccc(C#N)c(Cl)c4)C5)cc3)CC2)C(C)(C)C)cc1 | 1.87 | 2.74 | 18.2 | 61.2 | – | – | – |
| N#Cc1ccc(O[C@H]2C[C@H]3CC[C@@H](C2)N3C(=O)c2cnc(N3CCN(CCCCCCCNc4cccc5c4C(=O)N(C4CCC(=O)NC4=O)C5=O)CC3)nc2)cc1Cl (some centres undefined) | 26.7 | 27.4 | 28.3 | 37.5 | – | – | Dose-dependent effect |
| Cc1ncsc1-c1ccc(CNC(=O)[C@@H]2C[C@@H](O)CN2C(=O)[C@@H](NC(=O)COCCN2CCN(c3ccc(C(=O)N4[C@@H]5CC[C@H]4C[C@@H](Oc4ccc(C#N)c(Cl)c4)C5)cc3)CC2)C(C)(C)C)cc1 | 18.5 | 31.1 | 56.6 | 64.6 | – | – | – |
| C[C@@]12C[C@H](NC(=O)c3ccc(N4CCN(CCCCCCCNc5ccc6c(c5)C(=O)N(C5CCC(=O)NC5=O)C6=O)CC4)cc3)C[C@]1(C)C[C@@H](Oc1ccc(C#N)c(Cl)c1)C2 (some centres undefined) | 7.46 | 14 | 14.3 | 14.8 | – | – | – |
| N#Cc1ccc(O[C@H]2C[C@H]3CC[C@@H](C2)N3C(=O)c2cnc(N3CCN(CCCCCNc4ccc5c(c4)C(=O)N(C4CCC(=O)NC4=O)C5=O)CC3)nc2)cc1Cl (some centres undefined) | 20.4 | 31.4 | 34.2 | 34.9 | – | – | – |
| C[C@@]12C[C@H](NC(=O)c3ccc(N4CCN(CCCCCCCCCNc5ccc6c(c5)C(=O)N(C5CCC(=O)NC5=O)C6=O)CC4)cc3)C[C@]1(C)C[C@@H](Oc1ccc(C#N)c(Cl)c1)C2 (some centres undefined) | – | 18 | 24.3 | 25 | – | – | – |
| Cc1ncsc1-c1ccc([C@H](C)NC(=O)[C@@H]2C[C@@H](O)CN2C(=O)[C@@H](NC(=O)COCCN2CCN(c3ccc(C(=O)N4[C@@H]5CC[C@H]4C[C@@H](Oc4ccc(C#N)c(Cl)c4)C5)cn3)CC2)C(C)(C)C)cc1 | 28.4 | 7.23 | 63.6 | 72.5 | – | – | – |
| Cc1ncsc1-c1ccc([C@H](C)NC(=O)[C@@H]2C[C@@H](O)CN2C(=O)[C@@H](NC(=O)COCCN2CCN(c3cnc(C(=O)N4[C@@H]5CC[C@H]4C[C@@H](Oc4ccc(C#N)c(Cl)c4)C5)cn3)CC2)C(C)(C)C)cc1 | 42.4 | 52 | 61.5 | 72.3 | – | – | – |
| N#Cc1ccc(O[C@H]2C[C@H]3CC[C@@H](C2)N3C(=O)c2cnc(N3CCN(CCCCNc4cccc5c4C(=O)N(C4CCC(=O)NC4=O)C5=O)CC3)nc2)cc1Cl (some centres undefined) | 19 | 29 | 44.4 | 50.4 | – | – | Dose-dependent effect |
| Cc1ncsc1-c1ccc(CNC(=O)[C@@H]2C[C@@H](O)CN2C(=O)[C@@H](NC(=O)CN2CCN(c3ccc(C(=O)N4[C@@H]5CC[C@H]4C[C@@H](Oc4ccc(C#N)c(Cl)c4)C5)cc3)CC2)C(C)(C)C)cc1 | – | 5.65 | 35.1 | 86.7 | – | – | – |
